Test results: ChEMBL document CHEMBL1138574, “Regioselective synthesis and stereochemical structure of anti-tumor active dispiro[3H-indole-3,2'-pyrrolidine-3',3''-piperidine]-2(1H),4''-diones” (2009)

Columns and labels:
Assay type in all cases: functional
Rattus norvegicus [1] = assay: Antiinflammatory activity in Wister albino rat assessed as inhibition of carrageenan-induced paw oedema at 50 mg/kg, ip administered 1 hr before carrageenan challenge measured after 2 hrs of induction of inflammation relative to control; settings: route intraperitoneal
M14 = assay: Antitumor activity against human M14 cells assessed as cell growth at 10 uM after 48 hrs by sulforhodamine B assay; settings: M14, 48 h, read-out: Activity
NCI-H460 = assay: Antitumor activity against human NCI-H460 cells assessed as cell growth at 10 uM after 48 hrs by sulforhodamine B assay; settings: NCI-H460, 48 h, read-out: Activity
U-251 = assay: Antitumor activity against human U251 cells assessed as cell growth at 10 uM after 48 hrs by sulforhodamine B assay; settings: U-251, 48 h, read-out: Activity
A549 = assay: Antitumor activity against human A549 cells assessed as cell growth at 10 uM after 48 hrs by sulforhodamine B assay; settings: A549, 48 h, read-out: Activity
Rattus norvegicus [2] = assay: Antiinflammatory activity in Wister albino rat assessed as inhibition of carrageenan-induced paw oedema at 50 mg/kg, ip administered 1 hr before carrageenan challenge measured after 3 hrs of induction of inflammation relative to control; settings: route intraperitoneal
IGROV-1 = assay: Antitumor activity against human IGROV1 cells assessed as cell growth at 10 uM after 48 hrs by sulforhodamine B assay; settings: IGROV-1, 48 h, read-out: Activity
MDA-MB-468 = assay: Antitumor activity against human MDA-MB-468 cells assessed as cell growth at 10 uM after 48 hrs by sulforhodamine B assay; settings: MDA-MB-468, 48 h, read-out: Activity
COLO 205 = assay: Antitumor activity against human COLO205 cells assessed as cell growth at 10 uM after 48 hrs by sulforhodamine B assay; settings: COLO 205, 48 h, read-out: Activity
[3] = Antitumor activity against human […] cells assessed as cell growth at 10 uM after 48 hrs by sulforhodamine B assay; settings: read-out: Activity
DU-145 = assay: Antitumor activity against human DU145 cells assessed as cell growth at 10 uM after 48 hrs by sulforhodamine B assay; settings: DU-145, 48 h, read-out: Activity
Rattus norvegicus [4] = assay: Antiinflammatory activity in Wister albino rat assessed as inhibition of carrageenan-induced paw oedema at 50 mg/kg, ip administered 1 hr before carrageenan challenge measured after 1 hr of induction of inflammation relative to control; settings: route intraperitoneal
OVCAR-8 = assay: Antitumor activity against human OVCAR8 cells assessed as cell growth at 10 uM after 48 hrs by sulforhodamine B assay; settings: OVCAR-8, 48 h, read-out: Activity
MDA-MB-231 = assay: Antitumor activity against human MDA-MB-231 cells assessed as cell growth at 10 uM after 48 hrs by sulforhodamine B assay; settings: MDA-MB-231, 48 h, read-out: Activity
HCT-15 = assay: Antitumor activity against human HCT15 cells assessed as cell growth at 10 uM after 48 hrs by sulforhodamine B assay; settings: HCT-15, 48 h, read-out: Activity
SN12C = assay: Antitumor activity against human SN12C cells assessed as cell growth at 10 uM after 48 hrs by sulforhodamine B assay; settings: read-out: Activity
Rattus norvegicus [5] = assay: Antiinflammatory activity in Wister albino rat assessed as inhibition of carrageenan-induced paw oedema at 50 mg/kg, ip administered 1 hr before carrageenan challenge measured after 4 hrs of induction of inflammation relative to control; settings: route intraperitoneal
UACC-62 = assay: Antitumor activity against human UACC62 cells assessed as cell growth at 10 uM after 48 hrs by sulforhodamine B assay; settings: UACC-62, 48 h, read-out: Activity
PC-3 = assay: Antitumor activity against human PC3 cells assessed as cell growth at 10 uM after 48 hrs by sulforhodamine B assay; settings: PC-3, 48 h, read-out: Activity
BT-549 = assay: Antitumor activity against human BT549 cells assessed as cell growth at 10 uM after 48 hrs by sulforhodamine B assay; settings: BT-549, 48 h, read-out: Activity
SR = assay: Antitumor activity against human SR cells assessed as cell growth at 10 uM after 48 hrs by sulforhodamine B assay; settings: read-out: Activity
EKVX = assay: Antitumor activity against human EKVX cells assessed as cell growth at 10 uM after 48 hrs by sulforhodamine B assay; settings: read-out: Activity
786-0 = assay: Antitumor activity against human 786-0 cells assessed as cell growth at 10 uM after 48 hrs by sulforhodamine B assay; settings: 786-0, 48 h, read-out: Activity
HT-29 = assay: Antitumor activity against human HT-29 cells assessed as cell growth at 10 uM after 48 hrs by sulforhodamine B assay; settings: HT-29, 48 h, read-out: Activity
KM12 = assay: Antitumor activity against human KM12 cells assessed as cell growth at 10 uM after 48 hrs by sulforhodamine B assay; settings: KM12, 48 h, read-out: Activity
SNB-75 = assay: Antitumor activity against human SNB75 cells assessed as cell growth at 10 uM after 48 hrs by sulforhodamine B assay; settings: SNB-75, 48 h, read-out: Activity
HCT-116 = assay: Antitumor activity against human HCT116 cells assessed as cell growth at 10 uM after 48 hrs by sulforhodamine B assay; settings: HCT-116, 48 h, read-out: Activity
MOLT-4 = assay: Antitumor activity against human MOLT4 cells assessed as cell growth at 10 uM after 48 hrs by sulforhodamine B assay; settings: MOLT-4, 48 h, read-out: Activity
Rattus norvegicus [6] = assay: Antiinflammatory activity in Wister albino rat assessed as inhibition of carrageenan-induced paw oedema at 50 mg/kg, ip administered 1 hr before carrageenan challenge measured after 4 hrs of induction of inflammation relative to indomethacin; settings: route intraperitoneal
SK-MEL-28 = assay: Antitumor activity against human SK-MEL-28 cells assessed as cell growth at 10 uM after 48 hrs by sulforhodamine B assay; settings: SK-MEL-28, 48 h, read-out: Activity
HOP-92 = assay: Antitumor activity against human HOP92 cells assessed as cell growth at 10 uM after 48 hrs by sulforhodamine B assay; settings: HOP-92, 48 h, read-out: Activity
ACHN = assay: Antitumor activity against human ACHN cells assessed as cell growth at 10 uM after 48 hrs by sulforhodamine B assay; settings: read-out: Activity
UO-31 = assay: Antitumor activity against human UO31 cells assessed as cell growth at 10 uM after 48 hrs by sulforhodamine B assay; settings: UO-31, 48 h, read-out: Activity
NCI-H322M = assay: Antitumor activity against human NCI-H322M cells assessed as cell growth at 10 uM after 48 hrs by sulforhodamine B assay; settings: read-out: Activity
NCI-H23 = assay: Antitumor activity against human NCI-H23 cells assessed as cell growth at 10 uM after 48 hrs by sulforhodamine B assay; settings: NCI-H23, 48 h, read-out: Activity
Malme-3M = assay: Antitumor activity against human MALME-3M cells assessed as cell growth at 10 uM after 48 hrs by sulforhodamine B assay; settings: read-out: Activity

For CN1C/C(=C\c2ccc(Cl)cc2)C(=O)[C@]2(C1)[C@@H](c1ccc(Cl)cc1)CN(C)[C@@]21C(=O)Nc2ccccc21, the inhibition in vivo at 50 mg/kg (Rattus norvegicus [1]) was 63%, the growth at 10 µM (M14) was 78.3% and the growth at 10 µM (NCI-H460) was 66.7%. The growth at 10 µM (U-251) was 64.8%, the growth at 10 µM (A549) was 62.4% and the inhibition in vivo at 50 mg/kg (Rattus norvegicus [2]) was 49.6%. The growth at 10 µM (IGROV-1) was 81.8%, the growth at 10 µM (MDA-MB-468) was 56.6% and the growth at 10 µM (COLO 205) was 92.7%. For the same compound, the growth at 10 µM [3] was 38.5%, the growth at 10 µM (DU-145) was 83.8% and the inhibition in vivo at 50 mg/kg (Rattus norvegicus [4]) was 83.1%. The growth at 10 µM (OVCAR-8) was 69.4%, the growth at 10 µM (MDA-MB-231) was 74.9% and the growth at 10 µM (HCT-15) was 68.5%. For the same compound, the growth at 10 µM (SN12C) was 64.1%, the inhibition in vivo at 50 mg/kg (Rattus norvegicus [5]) was 42.2% and the growth at 10 µM (UACC-62) was 67.2%. The growth at 10 µM (PC-3) was 24.9%, the growth at 10 µM (BT-549) was 63.9% and the growth at 10 µM (SR) was 67.5%. The growth at 10 µM (EKVX) was 37.2%, the growth at 10 µM (786-0) was 71.8% and the growth at 10 µM (HT-29) was 59.5%. The growth at 10 µM (KM12) was 64.2%, the growth at 10 µM (SNB-75) was 56.7% and the growth at 10 µM (HCT-116) was 45.9%. For the same compound, the growth at 10 µM (MOLT-4) was 37.4%, the inhibition in vivo at 50 mg/kg (Rattus norvegicus [6]) was 74.7% and the growth at 10 µM (SK-MEL-28) was 101%. The growth at 10 µM (HOP-92) was 56.2%, the growth at 10 µM (ACHN) was 63.6% and the growth at 10 µM (UO-31) was 43.2%. For the same compound, the growth at 10 µM (NCI-H322M) was 68.7%, the growth at 10 µM (NCI-H23) was 44.8% and the growth at 10 µM (Malme-3M) was 91.9%.
